Test systems include KM20L2 colon; HOP-18 NSCLC; M19-MEL melanoma; DMS 273 small cell lung; LXFL 529 NSCLC; XF 498 CNS; SNB-78 CNS; RXF-631 renal.
What all share (assay): NCI-60 cell line screen, 48 h

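Compound exposure: 48 hours, 5 concentrations, 96-well plates. TGI marks complete inhibition of growth.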

`CCC12C=CCN3CCC4(C(=C(C(=O)OC)C1)Nc1ccccc14)[C@H]32` (some centres not stated): the TGI was 47.6 µM in the experiment with KM20L2 colon; more than 100 µM in the experiment with HOP-18 NSCLC; more than 100 µM in the experiment with M19-MEL melanoma; 42.8 µM in the experiment on DMS 273 small cell lung; more than 100 µM in the experiment on LXFL 529 NSCLC.
Turning to `CCN1CCC(O)(/C=C/c2ccc(Cl)cc2)C(C(=O)/C=C/c2ccc(Cl)cc2)C1` (configuration not stated), the TGI was more than 100 µM in the experiment with XF 498 CNS; 99.3 µM in the experiment with KM20L2 colon; 92.9 µM with M19-MEL melanoma; 60.2 µM in the experiment with DMS 273 small cell lung; more than 100 µM in the experiment on SNB-78 CNS; 28 µM with LXFL 529 NSCLC.
Regarding `C#CC1(O)CC(c2ccccc2)N(C)C(c2ccccc2)C1` (configuration not stated), the TGI in the experiment on KM20L2 colon, in the experiment on M19-MEL melanoma, in the experiment on DMS 273 small cell lung, in the experiment with SNB-78 CNS, in the experiment on RXF-631 renal and with LXFL 529 NSCLC was more than 100 µM in each case.
Regarding `O=c1cc(-c2cccc(Br)c2)[nH]c2cc3c(cc12)OCO3`, the TGI was 14.5 µM in the experiment with XF 498 CNS; 46.7 µM in the experiment with HOP-18 NSCLC; more than 100 µM in the experiment on M19-MEL melanoma; 22.4 µM in the experiment on DMS 273 small cell lung; 20.5 µM in the experiment on SNB-78 CNS; 18.6 µM with LXFL 529 NSCLC.
With `COc1cc2c(cc1OC)C(=O)N1CCCC1C(=O)S2` (configuration not stated), the TGI with XF 498 CNS, in the experiment with KM20L2 colon, in the experiment on HOP-18 NSCLC, in the experiment with DMS 273 small cell lung, in the experiment on SNB-78 CNS and in the experiment with LXFL 529 NSCLC was more than 100 µM in each case.
As for `NCCSc1nc(N)c2ncn(C3OC(CO)C(O)C3O)c2n1` (configuration not stated), the TGI with XF 498 CNS, with KM20L2 colon, in the experiment on HOP-18 NSCLC, in the experiment on M19-MEL melanoma, in the experiment with DMS 273 small cell lung and with SNB-78 CNS was more than 100 µM in each case.
Turning to `COC1=CC(=O)C2C(C1=O)[C@@H]1c3ccccc3OC[C@H]21` (some centres not stated), the TGI with KM20L2 colon, in the experiment with HOP-18 NSCLC, with DMS 273 small cell lung, with SNB-78 CNS and in the experiment with LXFL 529 NSCLC was more than 100 µM each time.
With `CCOC(=O)C1C(=O)c2cccc(OC)c2C2COC(=O)N12` (configuration not stated), the TGI in the experiment on XF 498 CNS, in the experiment on KM20L2 colon, in the experiment on HOP-18 NSCLC, with M19-MEL melanoma, in the experiment on DMS 273 small cell lung and with RXF-631 renal was more than 100 µM throughout. The compound also returned a TGI in the experiment on LXFL 529 NSCLC of more than 100 µM.
For the compound `O=c1[nH]c(Br)nc2c(N3CCCCC3)c[nH]c12`, the TGI in the experiment on XF 498 CNS, with KM20L2 colon, in the experiment on HOP-18 NSCLC, in the experiment on M19-MEL melanoma, with DMS 273 small cell lung and in the experiment with SNB-78 CNS was more than 100 µM each time. This compound also came in with a TGI in the experiment with LXFL 529 NSCLC of more than 100 µM.
For the compound `CCOc1ccccc1NC(=O)C(=O)c1c(O)c2ccc(O)cc2oc1=O`, the TGI with KM20L2 colon, in the experiment with HOP-18 NSCLC, in the experiment on M19-MEL melanoma, with DMS 273 small cell lung, with SNB-78 CNS and in the experiment with RXF-631 renal was more than 100 µM in each case. This compound also returned a TGI with LXFL 529 NSCLC of more than 100 µM.
For `CCCCCCCCC(=O)NCCN(CCN)C(=O)CCCCCCCC`, the TGI in the experiment with XF 498 CNS was found to be 5.43 µM; with KM20L2 colon, 9.55 µM; with HOP-18 NSCLC it was 31 µM; in the experiment on M19-MEL melanoma it was 10.6 µM; in the experiment on DMS 273 small cell lung, 6.65 µM; in the experiment on SNB-78 CNS, 23.4 µM. Besides, the TGI in the experiment on RXF-631 renal turned out to be 13 µM; in the experiment on LXFL 529 NSCLC, 7.89 µM.
In the case of `CC(=O)CC(=O)ON(C)C(=O)Cc1ccccc1`, the TGI in the experiment with XF 498 CNS, in the experiment on KM20L2 colon, with M19-MEL melanoma, in the experiment with DMS 273 small cell lung, with SNB-78 CNS and with LXFL 529 NSCLC was more than 100 µM throughout.
In the case of `Cc1ccccc1NC(=O)CC(=O)n1nc(-c2ccccc2)c(N=Nc2ccc([N+](=O)[O-])cc2)c1-c1ccccc1`, the TGI is 51.7 µM in the experiment on XF 498 CNS; 32.8 µM in the experiment with KM20L2 colon; 87.8 µM in the experiment on HOP-18 NSCLC; 49.4 µM with DMS 273 small cell lung; more than 100 µM in the experiment on SNB-78 CNS; 41.6 µM with RXF-631 renal. The compound also came in with a TGI with LXFL 529 NSCLC of more than 100 µM.

(Values after PubChem BioAssay (NCI).)
